“And” between values parts separate entries of the source, which are not always exact repeats. Identical values can stand only once.
Test system: 521955-158-R2-J5-PDC complex spheroid viability
Assay: Anticancer human tumor 521955-158-R2-J5-PDC patient-derived pancreatic carcinoma cell line growth inhibition [GQUAD]
Conditions: for viability, T/C: stronger effect = lower value
Description: DNA G-quadruplex Stabilizer Agents in Combinations in Complex Spheroids
A high-throughput screen of multi-cell type tumor spheroids was designed to identify active combinations of DNA G-quadruplex stabilizer agents and targeted small molecules. Complex spheroids include a stromal component modeled by human endothelial cells (HUVEC) and fibroblasts modeled by human mesenchymal stem cells (MSCs). The concentration ranges selected for each drug and investigational agent were based upon clinically achievable concentrations if the clinical Cmax of the agent was known.
Compounds. The drugs and investigational agents: pidnarulex (CX-5461; NSC782164), APTO-253 (NSC789042), BRACO-19 (NSC847499), peposertib (NSC802822), ceralasertib (NSC780249), elimusertib (NSC800525), camonsertib (NSC841442), AZD-1390 (NSC803789), olaparib (NSC753686), talazoparib (NSC767125), ART-558 (NSC835418), sotorasib (NSC818433), MRTX-1133 (NSC836407), SN-38 (NSC673596), topotecan (NSC609699), etoposide (NSC141540), doxorubicin (NSC123127), gemcitabine (NSC613327), 5-fluorouracil (NSC19893), paclitaxel (NSC125973), vemurafenib (NSC761431), panobinostat (NSC761190), R-306465 (JNJ-16241199; NSC773264), adavosertib (NSC754352), TP-3654 (NSC805149), carboplatin (NSC241240), KSQ-4279 (NSC840948), and staurosporine (NSC755774) were obtained from the National Cancer Institute (NCI) Developmental Therapeutics Program Chemical Repository (34). The FDA-approved anticancer drug set is available from the NCI Developmental Therapeutics Program. […] The stock solutions were prepared in dimethyl sulfoxide (DMSO, Sigma-Aldrich, St. Louis, MO, cat. D2650) at 800-fold the tested concentration and stored at -70 degrees C prior to their use. All drugs and investigational agents were tested over a range starting from a high concentration at or near the clinical Cmax and decreasing in half-log increments. If the clinical Cmax for an agent had not been determined, the highest concentration tested was 10 microM.
2.3 Cell Culture. All cells were maintained in an incubator at 37 degrees C and 5% CO2 with 95% humidity. The PDC lines were cultured according to standard operating procedures established by the NCI PDMR. All PDCs were thawed and cultured in Matrigel-coated flasks prepared with a working solution of 1X Ham's F-12 nutrient mix, without supplementation (Invitrogen, cat. 11765054), 100 U/mL penicillin-streptomycin (Invitrogen, cat. 15140122), and 2.5% Matrigel (Corning Inc., cat. 354248) for the first three passages. The 857933-349-R-J2-PDC line was cultured in 6C/Colon 1B media, which includes advanced DMEM/F-12 (Thermo Fisher Scientific, cat. 12634028), 10 mM HEPES (Thermo Fisher Scientific, cat. 15630080), 1X GlutaMAX supplement (Thermo Fisher Scientific, cat. 35050061), 0.1 mg/mL primocin (InvivoGen, cat. ant-pm-2), 10% defined fetal bovine serum, heat inactivated (HyClone Laboratories Inc., cat. SH30070.03HI), 50% L-WRN conditioned media (ATCC, cat. CRL-3276), 1.25 mM N-Acetyl-L-cysteine (Sigma-Aldrich, cat. A9165), 10 mM nicotinamide (Sigma-Aldrich, cat. N0636), 1X B-27 supplement (Thermo Fisher Scientific, cat. 17504044), 1X N-2 supplement (Thermo Fisher Scientific, cat. 17502048), 10 microM Y-27632 dihydrochloride (Tocris Bioscience, cat. 1254), and 50 ng/mL human EGF recombinant protein (Thermo Fisher Scientific, cat. PHG0311). The 485176-168-R4-J1-PDC line was cultured in Panc media, which includes all 6C/Colon 1B media components plus 100 ng/mL human FGF-10 (Thermo Fisher Scientific, cat. 100-26), 500 nM SB-431542 (Selleckchem, cat. S1067), and gastrin (Tocris, cat. 3006).
[…]

[1] = curve of first compound, second compound 0.0316 µM
[2] = curve of first compound, second compound 0.1 µM
[3] = curve of first compound, second compound 0.316 µM
[4] = curve of first compound, second compound 1 µM
[5] = curve of first compound, second compound 3.16 µM
[6] = curve of first compound, second compound 10 µM
[7] = second compound 0.0316 µM, first compound 0.0316 µM
[8] = second compound 0.0316 µM, first compound 0.1 µM
[9] = second compound 0.0316 µM, first compound 0.316 µM
[10] = second compound 0.0316 µM, first compound 1 µM
[11] = second compound 0.0316 µM, first compound 3.16 µM
[12] = second compound 0.0316 µM, first compound 10 µM
[13] = second compound 0.1 µM, first compound 0.0316 µM
[14] = second compound 0.1 µM, first compound 0.1 µM
[15] = second compound 0.1 µM, first compound 0.316 µM
[16] = second compound 0.1 µM, first compound 1 µM
[17] = second compound 0.1 µM, first compound 3.16 µM
[18] = second compound 0.1 µM, first compound 10 µM
[19] = second compound 0.316 µM, first compound 0.0316 µM
[20] = second compound 0.316 µM, first compound 0.1 µM
[21] = second compound 0.316 µM, first compound 0.316 µM
[22] = second compound 0.316 µM, first compound 1 µM
[23] = second compound 0.316 µM, first compound 3.16 µM
[24] = second compound 0.316 µM, first compound 10 µM
[25] = second compound 1 µM, first compound 0.0316 µM
[26] = second compound 1 µM, first compound 0.1 µM
[27] = second compound 1 µM, first compound 0.316 µM
[28] = second compound 1 µM, first compound 1 µM
[29] = second compound 1 µM, first compound 3.16 µM
[30] = second compound 1 µM, first compound 10 µM
[31] = second compound 3.16 µM, first compound 0.0316 µM
[32] = second compound 3.16 µM, first compound 0.1 µM
[33] = second compound 3.16 µM, first compound 0.316 µM
[34] = second compound 3.16 µM, first compound 1 µM
[35] = second compound 3.16 µM, first compound 3.16 µM
[36] = second compound 3.16 µM, first compound 10 µM
[37] = second compound 10 µM, first compound 0.0316 µM
[38] = second compound 10 µM, first compound 0.1 µM
[39] = second compound 10 µM, first compound 0.316 µM
[40] = second compound 10 µM, first compound 1 µM
[41] = second compound 10 µM, first compound 3.16 µM
[42] = second compound 10 µM, first compound 10 µM
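Note: spheroids exposed to agents for one week before reading.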
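Throughout, for viability, T/C: 100% = DMSO vehicle control viability.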

COc1ncnc(C2CC2)c1-c1ncc2cnn(Cc3ccc(-c4nc(C(F)(F)F)cn4C(C)C)cc3)c2n1 + Cc1[nH]c2ccc(F)cc2c1-c1nc2c3cccnc3c3ncccc3c2[nH]1
IC50 [1]: > 10 µM | IC50 [2]: > 10 µM | IC50 [3]: > 10 µM | IC50 [4]: > 10 µM | IC50 [5]: > 10 µM | IC50 [6]: > 10 µM | viability, T/C [7]: 94% | viability, T/C [8]: 103% | viability, T/C [9]: 107% | viability, T/C [10]: 111% | viability, T/C [11]: 100% | viability, T/C [12]: 143% | viability, T/C [13]: 101% | viability, T/C [14]: 99.2% | viability, T/C [15]: 105% | viability, T/C [16]: 126% | viability, T/C [17]: 104% | viability, T/C [18]: 121% | viability, T/C [19]: 109% | viability, T/C [20]: 97.5% | viability, T/C [21]: 125% | viability, T/C [22]: 112% | viability, T/C [23]: 116% | viability, T/C [24]: 126% | viability, T/C [25]: 97.8% | viability, T/C [26]: 91.9% | viability, T/C [27]: 102% | viability, T/C [28]: 112% | viability, T/C [29]: 133% | viability, T/C [30]: 119% | viability, T/C [31]: 87.7% | viability, T/C [32]: 90.1% | viability, T/C [33]: 98.1% | viability, T/C [34]: 111% | viability, T/C [35]: 125% | viability, T/C [36]: 116% | viability, T/C [37]: 81.8% | viability, T/C [38]: 68.6% | viability, T/C [39]: 101% | viability, T/C [40]: 102% | viability, T/C [41]: 109% | viability, T/C [42]: 116%

CC(C)n1c(=O)n(C)c2cnc3cc(F)c(-c4ccc(OCCCN5CCCCC5)nc4)cc3c21 + Cc1[nH]c2ccc(F)cc2c1-c1nc2c3cccnc3c3ncccc3c2[nH]1
IC50 [1]: > 10 µM | IC50 [2]: > 10 µM | IC50 [3]: > 10 µM | IC50 [4]: > 10 µM | IC50 [5]: > 10 µM | IC50 [6]: > 10 µM | viability, T/C [7]: 116% | viability, T/C [8]: 90.8% | viability, T/C [9]: 109% | viability, T/C [10]: 84.5% | viability, T/C [11]: 101% | viability, T/C [12]: 94.4% | viability, T/C [13]: 94.8% | viability, T/C [14]: 114% | viability, T/C [15]: 97.7% | viability, T/C [16]: 105% | viability, T/C [17]: 115% | viability, T/C [18]: 84.8% | viability, T/C [19]: 105% | viability, T/C [20]: 108% | viability, T/C [21]: 116% | viability, T/C [22]: 104% | viability, T/C [23]: 90.8% | viability, T/C [24]: 83.7% | viability, T/C [25]: 101% | viability, T/C [26]: 113% | viability, T/C [27]: 104% | viability, T/C [28]: 94.9% | viability, T/C [29]: 108% | viability, T/C [30]: 91.1% | viability, T/C [31]: 107% | viability, T/C [32]: 110% | viability, T/C [33]: 109% | viability, T/C [34]: 102% | viability, T/C [35]: 115% | viability, T/C [36]: 94.2% | viability, T/C [37]: 114% | viability, T/C [38]: 92.8% | viability, T/C [39]: 115% | viability, T/C [40]: 110% | viability, T/C [41]: 108% | viability, T/C [42]: 79.1%

CC(=O)O[C@H]1C(=O)[C@@]2(C)[C@H]([C@H](OC(=O)c3ccccc3)[C@]3(O)C[C@H](OC(=O)[C@H](O)[C@@H](NC(=O)c4ccccc4)c4ccccc4)C(C)=C1C3(C)C)[C@]1(OC(C)=O)CO[C@@H]1C[C@@H]2O
viability, T/C (compound 0.0316 µM): 55.7% and 44.9% and 22.1% | viability, T/C (compound 0.1 µM): 41.9% and 46.4% and 14.2% | viability, T/C (compound 0.316 µM): 27.7% and 32.3% and 8.41% | viability, T/C (compound 1 µM): 33.1% and 30.1% and 9.52% | viability, T/C (compound 3.16 µM): 22.9% and 28.9% and 11.5% | viability, T/C (compound 10 µM): 29.9% and 31.3% and 16% | IC50 (curve of compound): 0.0509 µM and < 0.0316 µM

COc1ncnc(C2CC2)c1-c1ncc2cnn(Cc3ccc(-c4nc(C(F)(F)F)cn4C(C)C)cc3)c2n1 + CN(C)c1ccc(Nc2c3ccc(NC(=O)CCN4CCCC4)cc3nc3cc(NC(=O)CCN4CCCC4)ccc23)cc1
IC50 [1]: > 10 µM | IC50 [2]: > 10 µM | IC50 [3]: > 10 µM | IC50 [4]: > 10 µM | IC50 [5]: > 10 µM | IC50 [6]: 4.55 µM | viability, T/C [7]: 113% | viability, T/C [8]: 103% | viability, T/C [9]: 116% | viability, T/C [10]: 114% | viability, T/C [11]: 135% | viability, T/C [12]: 140% | viability, T/C [13]: 97.7% | viability, T/C [14]: 112% | viability, T/C [15]: 107% | viability, T/C [16]: 112% | viability, T/C [17]: 148% | viability, T/C [18]: 122% | viability, T/C [19]: 95.4% | viability, T/C [20]: 123% | viability, T/C [21]: 118% | viability, T/C [22]: 121% | viability, T/C [23]: 115% | viability, T/C [24]: 117% | viability, T/C [25]: 105% | viability, T/C [26]: 109% | viability, T/C [27]: 115% | viability, T/C [28]: 122% | viability, T/C [29]: 112% | viability, T/C [30]: 115% | viability, T/C [31]: 86% | viability, T/C [32]: 93% | viability, T/C [33]: 101% | viability, T/C [34]: 111% | viability, T/C [35]: 114% | viability, T/C [36]: 82.8% | viability, T/C [37]: 74% | viability, T/C [38]: 74.7% | viability, T/C [39]: 69.5% | viability, T/C [40]: 76.7% | viability, T/C [41]: 68.1% | viability, T/C [42]: 10.3%

— PubChem BioAssay AID2060495 (Molecular Pharmacology Branch, DTP, NCI, 2025)
